Assay results taken from US11434242B2, “Dopamine-b-hydroxylase inhibitors” (BIAL-PORTELA & Cª, S.A., priority 2017, dated 2022).
Marks after values point to notes of the source that are not given here.

Target: T1, Dopamine beta hydroxylase (Homo sapiens, UniProt P09172)
T1 construct: 125 μl of plasma; tissue Instituto Português do Sangue Transplantação; host or cells: human plasma from healthy donors
T1 sequence (P09172 40-617 limits assumed): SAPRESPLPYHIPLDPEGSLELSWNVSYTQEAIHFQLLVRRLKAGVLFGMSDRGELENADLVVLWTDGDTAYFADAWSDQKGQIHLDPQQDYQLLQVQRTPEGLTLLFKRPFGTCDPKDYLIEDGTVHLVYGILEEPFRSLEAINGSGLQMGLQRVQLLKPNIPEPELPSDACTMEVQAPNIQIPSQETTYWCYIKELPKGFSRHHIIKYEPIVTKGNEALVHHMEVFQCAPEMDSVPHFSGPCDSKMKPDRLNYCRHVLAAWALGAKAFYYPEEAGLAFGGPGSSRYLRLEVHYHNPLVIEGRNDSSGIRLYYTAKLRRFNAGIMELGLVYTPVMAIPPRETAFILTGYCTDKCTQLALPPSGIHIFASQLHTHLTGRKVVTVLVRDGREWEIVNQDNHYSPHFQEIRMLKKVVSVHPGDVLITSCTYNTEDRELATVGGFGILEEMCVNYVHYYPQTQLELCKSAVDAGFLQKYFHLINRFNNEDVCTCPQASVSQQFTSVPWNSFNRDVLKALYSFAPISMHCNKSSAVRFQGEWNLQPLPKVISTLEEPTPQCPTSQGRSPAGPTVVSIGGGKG
Assay: Dopamine beta hydroxylase activity in human plasma
Format: biochemical
Details: for Plasma (1 μM), activity in % of control: inhibitor 1 μM
Outline: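 Octopamine production from tyramine over 45 min at 37° C, measured photometrically at 330 nm after SCX extraction and periodate oxidation against an octopamine standard curve, indicates plasma DβH activity. Compounds tested at final 10, 100 and 1000 nM in human plasma, pH 5.0 cofactor buffer, 10 min preincubation; results as % of control.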

SMILES	Plasma (0.01 μM), activity in % of control (inhibitor 0.01 μM)	Plasma (0.1 μM), activity in % of control (inhibitor 0.1 μM)	Plasma (1 μM), activity in % of control	Plasma (0.01 μM), activity in % of control, re-test (asterisked) (inhibitor 0.01 μM, re-tested under the same experimental conditions, asterisked data believed to be correct)	Plasma (0.1 μM), activity in % of control, re-test (asterisked) (inhibitor 0.1 μM, re-tested under the same experimental conditions, asterisked data believed to be correct)
CN(C(=O)Cc1c2n(c(=S)n1C)C[C@@]1(c3cc(Cl)ccc3F)C[C@@H]21)C1COC1 [Example 431, 2-((5aS,6aR)-5a-(5-chloro-2-fluorophenyl)-2-methyl-3-thioxo-2,3,5,5a,6,6a-hexahydrocyclopropa[3,4]pyrrolo[1,2-c]imidazol-1-yl)-N-methyl-N-(oxetan-3-yl)acetamide]	54.3 % of control	10.1 % of control			
Cn1c(CC(=O)N[C@@H]2CCCOC2)c2n(c1=S)C[C@@]1(c3cc(Br)ccc3F)C[C@@H]21 [Example 277, 2-((5aS,6aR)-5a-(5-bromo-2-fluorophenyl)-2-methyl-3-thioxo-2,3,5,5a,6,6a-hexahydrocyclopropa[3,4]pyrrolo[1,2-c]imidazol-1-yl)-N—((R)-tetrahydro-2H-pyran-3-yl)acetamide]	35.4 % of control	3.4 % of control			
O=C(Cc1[nH]c(=S)n2c1C[C@H](c1c(F)ccc(Br)c1F)C2)NC1CCOC1=O (stereo partly drawn) [Example 22, 2-((R)-6-(3-bromo-2,6-difluorophenyl)-3-thioxo-2,5,6,7-tetrahydro-3H-pyrrolo[1,2-c]imidazol-1-yl)-N-(2-oxotetrahydrofuran-3-yl)acetamide]		45.1 % of control	4.4 % of control		
O=C(Cc1[nH]c(=S)n2c1C[C@@H](c1c(F)ccc(Br)c1F)C2)N1CCOCC1 [Example 140, (S)-2-(6-(3-bromo-2,6-difluorophenyl)-3-thioxo-2,5,6,7-tetrahydro-3H-pyrrolo[1,2-c]imidazol-1-yl)-1-morpholinoethan-1-one]	73.1 % of control	26.8 % of control			
O=C(Cc1[nH]c(=S)n2c1C[C@H](c1c(F)c(F)cc(F)c1F)C2)N[C@H]1CC[C@H](O)CC1 [Example 28, N-((1r,4R)-4-hydroxycyclohexyl)-2-((R)-6-(2,3,5,6-tetrafluorophenyl)-3-thioxo-2,5,6,7-tetrahydro-3H-pyrrolo[1,2-c]imidazol-1-yl)acetamide]	78.1 % of control	33.8 % of control			
CN(CCO)C(=O)Cc1[nH]c(=S)n2c1C[C@H](c1c(F)ccc(Br)c1F)C2 [Example 131, (R)-2-(6-(3-bromo-2,6-difluorophenyl)-3-thioxo-2,5,6,7-tetrahydro-3H-pyrrolo[1,2-c]imidazol-1-yl)-N-(2-hydroxyethyl)-N-methylacetamide]	89.8 % of control	50.5 % of control			
CS(=O)(=O)CCNC(=O)Cc1[nH]c(=S)n2c1C[C@@H](c1c(F)ccc(Cl)c1F)C2 [Example 114, (S)-2-(6-(3-chloro-2,6-difluorophenyl)-3-thioxo-2,5,6,7-tetrahydro-3H-pyrrolo[1,2-c]imidazol-1-yl)-N-(2-(methylsulfonyl)ethyl)acetamide]	58.4 % of control	7.5 % of control			
O=C(Cc1[nH]c(=S)n2c1C[C@H](c1c(F)c(F)cc(F)c1F)C2)N[C@@H]1CCOC1 [Example 360, 2-((R)-6-(2,3,5,6-tetrafluorophenyl)-3-thioxo-2,5,6,7-tetrahydro-3H-pyrrolo[1,2-c]imidazol-1-yl)-N—((R)-tetrahydrofuran-3-yl)acetamide]	31.8 % of control	1.4 % of control		90.1* % of control	22.5* % of control
O=C(NCc1[nH]c(=S)n2c1C[C@@H](c1c(F)ccc(Cl)c1F)C2)C1CCOCC1 [Example 222, (S)—N-((6-(3-chloro-2,6-difluorophenyl)-3-thioxo-2,5,6,7-tetrahydro-3H-pyrrolo[1,2-c]imidazol-1-yl)methyl)tetrahydro-2H-pyran-4-carboxamide]	73.6 % of control	12.9 % of control			
O=C(Cc1[nH]c(=S)n2c1C[C@@H](c1c(F)ccc(Cl)c1F)C2)NC1CCCC1 [Example 84, (S)-2-(6-(3-chloro-2,6-difluorophenyl)-3-thioxo-2,5,6,7-tetrahydro-3H-pyrrolo[1,2-c]imidazol-1-yl)-N-cyclopentylacetamide]		24.5 % of control	1.0 % of control		
O=C(Cc1[nH]c(=S)n2c1C[C@@H](c1c(F)ccc(Br)c1F)C2)N[C@@H]1CCCOC1 [Example 402, 2-((S)-6-(3-bromo-2,6-difluorophenyl)-3-thioxo-2,5,6,7-tetrahydro-3H-pyrrolo[1,2-c]imidazol-1-yl)-N—((R)-tetrahydro-2H-pyran-3-yl)acetamide]	59.6 % of control	20.9 % of control			
Cn1c(CC(=O)N[C@@H]2CCCOC2)c2n(c1=S)C[C@H](c1c(F)ccc(Br)c1F)C2 [Example 382, 2-((S)-6-(3-bromo-2,6-difluorophenyl)-2-methyl-3-thioxo-2,5,6,7-tetrahydro-3H-pyrrolo[1,2-c]imidazol-1-yl)-N—((R)-tetrahydro-2H-pyran-3-yl)acetamide]	37.6 % of control	6.0 % of control			
CN(C(=O)Cc1[nH]c(=S)n2c1C[C@H](c1c(F)ccc(Br)c1F)C2)C1CCCCC1 [Example 132, (R)-2-(6-(3-bromo-2,6-difluorophenyl)-3-thioxo-2,5,6,7-tetrahydro-3H-pyrrolo[1,2-c]imidazol-1-yl)-N-cyclohexyl-N-methylacetamide]	91.9 % of control	62.3 % of control			
Cl.Cn1c(CCNC2CCCC2)c2n(c1=S)C[C@@]1(c3cc(Cl)ccc3F)C[C@@H]21 [Example 322, (5aS,6aR)-5a-(5-chloro-2-fluorophenyl)-1-(2-(cyclopentylamino)ethyl)-2-methyl-5,5a,6,6a-tetrahydrocyclopropa[3,4]pyrrolo[1,2-c]imidazole-3(2H)-thione Hydrochloride]	62.3 % of control	43.4 % of control			
CN(C)CCCNC(=O)Cc1[nH]c(=S)n2c1[C@@H]1C[C@]1(c1cc(Br)ccc1F)C2.Cl [Example 146, 2-((5aS,6aR)-5a-(5-bromo-2-fluorophenyl)-3-thioxo-2,3,5,5a,6,6a-hexahydrocyclopropa[3,4]pyrrolo[1,2-c]imidazol-1-yl)-N-(3-(dimethylamino)propyl)acetamide hydrochloride]		13.8 % of control	0.9 % of control		
